Assay results published in patent US10329302B2, “Bicyclic-fused heteroaryl or aryl compounds” (Pfizer Inc., priority 2014, dated 2019).
Read-outs that look alike come from different tables or passages of the source.

Columns and labels:
[1] = system: R848-induced TNFα production by human peripheral blood mononuclear cells (PBMCs); experiment: R848 Induced TNFα in Human PBMC Assay; assay type: cell-based
[2] = target: human IRAK4 FL (Full Length) (Homo sapiens (Human), UniProt Q9NWZ3); experiment: IRAK4 Enzymatic DELFIA Assay, Protocol A; assay type: biochemical
Sequence of human IRAK4 FL (Full Length) (Q9NWZ3 whole entry): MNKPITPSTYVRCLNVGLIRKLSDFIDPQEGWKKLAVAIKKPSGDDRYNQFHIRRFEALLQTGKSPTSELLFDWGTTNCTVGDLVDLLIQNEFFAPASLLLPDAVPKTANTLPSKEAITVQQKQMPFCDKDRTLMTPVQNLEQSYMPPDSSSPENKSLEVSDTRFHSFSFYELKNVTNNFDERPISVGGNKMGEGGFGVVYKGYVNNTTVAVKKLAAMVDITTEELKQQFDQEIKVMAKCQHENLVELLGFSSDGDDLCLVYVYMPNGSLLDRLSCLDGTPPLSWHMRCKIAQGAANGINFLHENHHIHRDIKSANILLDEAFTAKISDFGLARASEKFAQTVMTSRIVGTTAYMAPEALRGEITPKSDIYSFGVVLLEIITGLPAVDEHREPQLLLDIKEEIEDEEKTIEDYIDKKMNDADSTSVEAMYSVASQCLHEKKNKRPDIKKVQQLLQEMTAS

[3] = Homo sapiens, PBMC, 3 h, read-out: R848-induced TNFa PBMC IC50 (nM)
[4] = human IRAK4 FL, 0.6 mM ATP (KM), read-out: IRAK4 DELFIA Protocol A IC50

SMILES	IC50 [1, 3]	IC50 [2, 4]	IC50 ([1]; human PBMC, absence of serum, 3 hours, read-out: R848-induced TNFa PBMC IC50)	IC50 [2]
CC[C@@H]1[C@H](F)C(=O)N[C@@H]1COc1ncc(F)c2cc(C(N)=O)c(OC)cc12 [Example 360, 1-{[(2S,3S,4S)-3-ethyl-4-fluoro-5-oxopyrrolidin-2-yl]methoxy}-4-fluoro-7-methoxyisoquinoline-6-carboxamide]	3.9 nM	0.0001 µM		
COc1cc2c(OC[C@H]3COC(=O)N3)nccc2cc1C(N)=O [Example 229, 7-methoxy-1-{[(4S)-2-oxo-1,3-oxazolidin-4-yl]methoxy}isoquinoline-6-carboxamide]	6300 nM	3.51 µM		
CC[C@]1(F)C[C@@H](COc2ccnc3cc(C(N)=O)c(OC)cc23)NC1=O [Example 259, 4-{[(2S,4S)-4-ethyl-4-fluoro-5-oxopyrrolidin-2-yl]methoxy}-6-methoxyquinoline-7-carboxamide]	120 nM	0.0031 µM		
COc1cc2c(OC[C@H]3NC(=O)O[C@@H]3C)cccc2cc1C(N)=O [Example 228, 3-methoxy-5-{[(4R,5R)-5-methyl-2-oxo-1,3-oxazolidin-4-yl]methoxy}naphthalene-2-carboxamide]	118 nM	0.0042 µM		
CC[C@H]1[C@@H](COc2nccc3cc(C(N)=O)c(OC)cc23)NC(=O)C1(F)F [Example 345, 1-{[(2S,3S)-3-ethyl-4,4-difluoro-5-oxopyrrolidin-2-yl]methoxy}-7-methoxyisoquinoline-6-carboxamide]	1.6 nM	0.0002 µM		
CC[C@H]1C[C@@H](COc2nccc3cc(C(N)=O)c(OC(C)C)cc23)NC1=O [Example 135, 1-{[(2S,4S)-4-ethyl-5-oxopyrrolidin-2-yl]methoxy}-7-(propan-2-yloxy)isoquinoline-6-carboxamide]	32 nM	0.0012 µM		
CCC[C@@H]1CC(=O)N[C@@H]1COc1nccc2cc(C(N)=O)c(OC)cc12 [Example 312, 7-methoxy-1-{[(2S,3R)-5-oxo-3-propylpyrrolidin-2-yl]methoxy}isoquinoline-6-carboxamide]	26 nM	0.0013 µM		
Cc1nc(-c2cnc(OC[C@@H]3CCC(=O)N3)c3cc(OC(C)C)c(C(N)=O)cc23)cn1C [Example 372, 4-(1,2-dimethyl-1H-imidazol-4-yl)-1-{[(2S)-5-oxopyrrolidin-2-yl]methoxy}-7-(propan-2-yloxy)isoquinoline-6-carboxamide]	649 nM	0.011 µM		
CC(C)Oc1cc2c(OC[C@@H]3COC(=O)N3)nccc2cc1C(N)=O [Example 04, 1-{[(4R)-2-oxo-1,3-oxazolidin-4-yl]methoxy}-7-(propan-2-yloxy)isoquinoline-6-carboxamide]	1800 nM	0.0066 µM		
CC(C)Oc1cc2c(OC[C@H]3NC(=O)C[C@@H]3C)nccc2cc1C(N)=O [Example 141, 1-{[(2S,3S)-3-methyl-5-oxopyrrolidin-2-yl]methoxy}-7-(propan-2-yloxy)isoquinoline-6-carboxamide]	294 nM	0.07 µM		
CC(C)Oc1cc2c(OC[C@@H]3CCCC(=O)N3)nccc2cc1C(N)=O [Example 06, 1-{[(2S)-6-oxopiperidin-2-yl]methoxy}-7-(propan-2-yloxy)isoquinoline-6-carboxamide]	472 nM	0.051 µM		
COc1cc2c(OC[C@H]3NC(=O)[C@@](C)(F)[C@H]3C)nccc2cc1C(N)=O [Example 238, 1-{[(2S,3S,4S)-4-fluoro-3,4-dimethyl-5-oxopyrrolidin-2-yl]methoxy}-7-methoxyisoquinoline-6-carboxamide]	45 nM	0.0037 µM		
COc1cc2c(OC[C@@H]3C[C@@H](CC#N)C(=O)N3)nccc2cc1C(N)=O [Example 225, 1-{[(2S,4S)-4-(cyanomethyl)-5-oxopyrrolidin-2-yl]methoxy}-7-methoxyisoquinoline-6-carboxamide]	155 nM	0.0034 µM		
CC(C)Oc1cc2c(OC[C@@H]3CC(C)(C)C(=O)N3)nccc2cc1C(N)=O [Example 110, 1-{[(2S)-4,4-dimethyl-5-oxopyrrolidin-2-yl]methoxy}-7-(propan-2-yloxy)isoquinoline-6-carboxamide]	1170 nM	0.418 µM		
COc1cc2c(OC[C@H]3NC(=O)[C@@H](F)[C@H]3CCF)nccc2cc1C(N)=O [Example 370, 1-{[(2S,3S,4S)-4-fluoro-3-(2-fluoroethyl)-5-oxopyrrolidin-2-yl]methoxy}-7-methoxyisoquinoline-6-carboxamide]	3.7 nM	0.0001 µM		
COc1cc2c(OC[C@H]3NC(=O)[C@H](F)[C@H]3C3CC3)nccc2cc1C(N)=O [Example 369, 1-{[(2S,3S,4R)-3-cyclopropyl-4-fluoro-5-oxopyrrolidin-2-yl]methoxy}-7-methoxyisoquinoline-6-carboxamide]	45 nM	0.0037 µM		

SMILES	IC50 [1, 3]	IC50 [2, 4]	IC50 ([1]; human PBMC, absence of serum, 3 hours, read-out: R848-induced TNFa PBMC IC50)	IC50 [2]
COc1cc2c(OC[C@H]3NC(=O)[C@]4(F)C[C@H]34)nccc2cc1C(N)=O [Example 317, 1-{[(1R,2S,5S)-5-fluoro-4-oxo-3-azabicyclo[3.1.0]hex-2-yl]methoxy}-7-methoxyisoquinoline-6-carboxamide]			22 nM	0.0006 µM
COc1cc2c(OC[C@H]3NC(=O)[C@H]4[C@@H]3[C@]4(C)F)nccc2cc1C(N)=O [Example 335, 1-{[(1S,2S,5R)-6-fluoro-6-methyl-4-oxo-3-azabicyclo[3.1.0]hex-2-yl]methoxy}-7-methoxyisoquinoline-6-carboxamide]	746 nM	0.004 µM		
CC[C@@]1(F)C[C@@H](COc2nccc3cc(C(N)=O)c(OC(C)C)cc23)NC1=O [Example 132, 1-{[(2S,4R)-4-ethyl-4-fluoro-5-oxopyrrolidin-2-yl]methoxy}-7-(propan-2-yloxy)isoquinoline-6-carboxamide]	1180 nM	0.188 µM		
C#CCOc1cc2c(OC[C@@H]3CCC(=O)N3)nccc2cc1C(N)=O [Example 318, 1-{[(2S)-5-oxopyrrolidin-2-yl]methoxy}-7-(prop-2-yn-1-yloxy)isoquinoline-6-carboxamide]	17200 nM	1.94 µM		
COc1cc2c(OC[C@H]3NC(=O)[C@@H](F)[C@H]3C)nccc2cc1C#N [Example 272, 1-{[(2S,3S,4S)-4-fluoro-3-methyl-5-oxopyrrolidin-2-yl]methoxy}-7-methoxyisoquinoline-6-carbonitrile]	2470 nM	0.432 µM		
COc1cc2c(OC[C@H]3NC(=O)[C@](C)(F)[C@H]3C)nccc2cc1C(N)=O [Example 237, 1-{[(2S,3S,4R)-4-fluoro-3,4-dimethyl-5-oxopyrrolidin-2-yl]methoxy}-7-methoxyisoquinoline-6-carboxamide]	1080 nM	0.295 µM		
CC[C@@H]1[C@H](F)C(=O)N[C@@H]1COc1nccc2cc(C(N)=O)c(OC(C)C)cc12 [Example 358, 1-{[(2S,3S,4S)-3-ethyl-4-fluoro-5-oxopyrrolidin-2-yl]methoxy}-7-(propan-2-yloxy)isoquinoline-6-carboxamide]	1.3 nM	0.0004 µM		
COc1cc2c(OC[C@@H]3C[C@@](F)(CCF)C(=O)N3)ccnc2cc1C(N)=O [Example 274, 4-{[(2S,4R)-4-fluoro-4-(2-fluoroethyl)-5-oxopyrrolidin-2-yl]methoxy}-6-methoxyquinoline-7-carboxamide]	748 nM	0.0022 µM		
COc1cc2c(OC[C@H]3NC(=O)O[C@@H]3C)nccc2cc1C(N)=O [Example 227, 7-methoxy-1-{[(4R,5R)-5-methyl-2-oxo-1,3-oxazolidin-4-yl]methoxy}isoquinoline-6-carboxamide]	749 nM	0.019 µM		
COc1cc2c(OC[C@H]3NC(=O)[C@@H](F)[C@H]3CF)nccc2cc1C(N)=O [Example 367, 1-{[(2S,3R,4S)-4-fluoro-3-(fluoromethyl)-5-oxopyrrolidin-2-yl]methoxy}-7-methoxyisoquinoline-6-carboxamide]	14 nM	0.0004 µM		
CC(C)Oc1cc2c(OC[C@@H]3C[C@](F)(CO)C(=O)N3)nccc2cc1C(N)=O [Example 163, 1-{[(2S,4S)-4-fluoro-4-(hydroxymethyl)-5-oxopyrrolidin-2-yl]methoxy}-7-(propan-2-yloxy)isoquinoline-6-carboxamide]	7450 nM	1.4 µM		
CC(C)Oc1cc2c(OC[C@@H]3C[C@](C)(F)C(=O)N3)ccnc2cc1C(N)=O [Example 269, 4-{[(2S,4S)-4-fluoro-4-methyl-5-oxopyrrolidin-2-yl]methoxy}-6-(propan-2-yloxy)quinoline-7-carboxamide]	104 nM	0.0006 µM		
CC(C)Oc1cc2c(OC[C@@H]3CCC(=O)N3)ncc(-c3cn(C)cn3)c2cc1C(N)=O [Example 371, 4-(1-methyl-1H-imidazol-4-yl)-1-{[(2S)-5-oxopyrrolidin-2-yl]methoxy}-7-(propan-2-yloxy)isoquinoline-6-carboxamide]	604 nM	0.007 µM		
COc1cc2c(OC[C@@H]3C[C@@](F)(CCF)C(=O)N3)nccc2cc1C(N)=O [Example 276, 1-{[(2S,4R)-4-fluoro-4-(2-fluoroethyl)-5-oxopyrrolidin-2-yl]methoxy}-7-methoxyisoquinoline-6-carboxamide]	107 nM	0.0041 µM		
CC(C)Oc1cc2c(OC[C@H]3NC(=O)[C@@H]4C[C@H]34)nccc2cc1C(N)=O [Example 174, 1-{[(1S,2S,5R)-4-oxo-3-azabicyclo[3.1.0]hex-2-yl]methoxy}-7-(propan-2-yloxy)isoquinoline-6-carboxamide]	126 nM	0.0031 µM		
COc1cc2c(OC[C@H]3NC(=O)[C@@H](F)[C@H]3C3CC3)nccc2cc1C(N)=O [Example 368, 1-{[(2S,3S,4S)-3-cyclopropyl-4-fluoro-5-oxopyrrolidin-2-yl]methoxy}-7-methoxyisoquinoline-6-carboxamide]	10 nM	0.0003 µM		
